Measured values from patent US8895585B2, “Nicotinamide derivative or salt thereof” (FUJIFILM Corporation, priority 2010, dated 2014).

Assays:
[1] = biological target: T1, glutathione S-transferase (GST)-fused full-length human Syk protein (Homo sapiens, UniProt P43405); test: Syk enzyme assay; type: biochemical; details: Syk enzyme assay, Test Example 1; read-out: IC50 of Syk-inhibitory activity
T1 construct: (GST)-fused full-length human Syk protein; GST (glutathione S-transferase); purchased Carna Biosciences
Procedure, shortened: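 Baculovirus-expressed enzyme (1.2 ng) was preincubated with compound in HEPES pH 7.0/MgCl2/DTT buffer, 2 min shaking then 13 min at room temperature. Biotin-EDPDYEWPSA-NH2 (0.4 μM final) and ATP (27 μM final) were added for 40 min at room temperature. EDTA stop, streptavidin-XL/PT66-K TR-FRET at 615/665 nm gave IC50.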

THP-1 cells = test: TNFα generation assay; type: cell-based, human; details: Homo sapiens, THP-1, THP-1 cells; Table 22; read-out: IC50 in TNFα generation assay
Procedure, shortened: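 THP-1 cells differentiated to macrophage-like cells with 10 ng/ml IFN-γ for 2 days, preincubated with compound 30 min at room temperature, then cultured 7 h on plates coated with human IgG (10 μg/ml). Secreted TNFα measured by ELISA or AlphaLISA.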

SMILES | IC50 [1] [nM] | IC50 (THP-1 cells) [nM]
C[C@H](N)[C@@H](CC1CC1)Nc1nc(Nc2cncc(C3CC3)c2)c(C(N)=O)cc1F [Example 006-350, 6-(((2R,3S)-3-amino-1-cyclopropylbutan-2-yl)amino)-2-((5-cyclopropylpyridin-3-yl)amino)-5-fluoronicotinamide] | < 10 | 65 to 130
C[C@H](N)[C@@H](CC1CC1)Nc1nc(Nc2cncc(-c3ccccc3)c2)c(C(N)=O)cc1F [Example 006-351, 6-(((2R,3S)-3-amino-1-cyclopropylbutan-2-yl)amino)-5-fluoro-2-((5-phenylpyridin-3-yl)amino)nicotinamide] | < 10 | 65 to 130
C[C@H](N)[C@@H](CC1CC1)Nc1nc(Nc2cncc(-n3nccn3)c2)c(C(N)=O)cc1F [Example 006-352, 2-((5-(2H-1,2,3-triazol-2-yl)pyridin-3-yl)amino)-6-(((2R,3S)-3-amino-1-cyclopropylbutan-2-yl)amino)-5-fluoronicotinamide] | < 10 | < 65
C[C@H](N)[C@@H](CC1CC1)Nc1nc(Nc2ccnc(-n3cncn3)c2)c(C(N)=O)cc1F [Example 006-353, 2-((2-(1H-1,2,4-triazol-1-yl)pyridin-4-yl)amino)-6-(((2R,3S)-3-amino-1-cyclopropylbutan-2-yl)amino)-5-fluoronicotinamide] | < 10 | < 65
C[C@H](N)[C@@H](CC1CC1)Nc1nc(Nc2cncc3ccccc23)c(C(N)=O)cc1F [Example 006-354, 6-(((2R,3S)-3-amino-1-cyclopropylbutan-2-yl)amino)-5-fluoro-2-((isoquinolin-4-yl)amino)nicotinamide] | < 10 | 65 to 130
COc1cc(Nc2nc(N[C@H](CC3CC3)[C@H](C)N)c(F)cc2C(N)=O)ccn1 [Example 006-355, 6-(((2R,3S)-3-amino-1-cyclopropylbutan-2-yl)amino)-5-fluoro-2-((2-methoxypyridin-4-yl)amino)nicotinamide] | < 10 | 65 to 130
C[C@H](N)[C@@H](CC1CC1)Nc1nc(Nc2cccc3c2cnn3C)c(C(N)=O)cc1F [Example 006-356, 6-(((2R,3S)-3-amino-1-cyclopropylbutan-2-yl)amino)-5-fluoro-2-((1-methyl-1H-indazol-4-yl)amino)nicotinamide] | < 10 | < 65
C[C@H](N)[C@@H](CC1CC1)Nc1nc(Nc2cncc(F)c2)c(C(N)=O)cc1F [Example 006-357, 6-(((2R,3S)-3-amino-1-cyclopropylbutan-2-yl)amino)-5-fluoro-2-((5-fluoropyridin-3-yl)amino)nicotinamide] | 10 to 50 | 65 to 130
CC[C@@H](Nc1nc(Nc2ccc3cnn(C)c3c2)c(C(N)=O)cc1F)[C@H](C)N [Example 006-358, 6-(((2S,3R)-2-aminopentan-3-yl)amino)-5-fluoro-2-((1-methyl-1H-indazol-6-yl)amino)nicotinamide] | < 10 | < 65
CCC[C@@H](Nc1nc(Nc2ccc3cnn(C)c3c2)c(C(N)=O)cc1F)[C@H](C)N [Example 006-359, 6-(((2S,3R)-2-aminohexan-3-yl)amino)-5-fluoro-2-((1-methyl-1H-indazol-6-yl)amino)nicotinamide] | < 10 | < 65
CCCC[C@H](CN)Nc1nc(Nc2ccc3cnn(C)c3c2)c(C(N)=O)cc1F [Example 006-360, (R)-6-((1-aminohexan-2-yl)amino)-5-fluoro-2-((1-methyl-1H-indazol-6-yl)amino)nicotinamide] | < 10 | 65 to 130
C[C@H](N)[C@@H](CC1CC1)Nc1nc(Nc2ccc3cnn(C)c3c2)c(C(N)=O)cc1F [Example 006-361, 6-(((2R,3S)-3-amino-1-cyclopropylbutan-2-yl)amino)-5-fluoro-2-((1-methyl-1H-indazol-6-yl)amino)nicotinamide] | < 10 | 65 to 130
CC[C@H](N)[C@@H](C)Nc1nc(Nc2ccc3c(cnn3CC)c2)c(C(N)=O)cc1F [Example 006-362, 6-(((2R,3S)-3-aminopentan-2-yl)amino)-2-((1-ethyl-1H-indazol-5-yl)amino)-5-fluoronicotinamide] | < 10 | 130 to 200
CC[C@H](N)[C@@H](C)Nc1nc(Nc2ccc3c(cnn3CCOC)c2)c(C(N)=O)cc1F [Example 006-363, 6-(((2R,3S)-3-aminopentan-2-yl)amino)-5-fluoro-2-((1-(2-methoxyethyl)-1H-indazol-5-yl)amino)nicotinamide] | < 10 | 65 to 130
CC[C@H](N)[C@@H](CC)Nc1nc(Nc2ccc3c(cnn3C)c2)c(C(N)=O)cc1F [Example 006-364, 6-(((3R,4S)-4-aminohexan-3-yl)amino)-5-fluoro-2-((1-methyl-1H-indazol-5-yl)amino)nicotinamide] | < 10 | 65 to 130
CC[C@H](N)[C@@H](CC)Nc1nc(Nc2ccc3c(cnn3CC)c2)c(C(N)=O)cc1F [Example 006-365, 6-(((3R,4S)-4-aminohexan-3-yl)amino)-2-((1-ethyl-1H-indazol-5-yl)amino)-5-fluoronicotinamide] | < 10 | 65 to 130
C[C@H](N)[C@H](Nc1nc(Nc2ccc3c(cnn3C)c2)c(C(N)=O)cc1F)C1CC1 [Example 006-369, 6-(((1R,2S)-2-amino-1-cyclopropylpropyl)amino)-5-fluoro-2-((1-methyl-1H-indazol-5-yl)amino)nicotinamide] | < 10 | < 65
C[C@H](N)[C@H](Nc1nc(Nc2ccc3cnn(C)c3c2)c(C(N)=O)cc1F)C1CC1 [Example 006-370, 6-(((1R,2S)-2-amino-1-cyclopropylpropyl)amino)-5-fluoro-2-((1-methyl-1H-indazol-6-yl)amino)nicotinamide] | < 10 | < 65
C[C@H](N)[C@H](Nc1nc(Nc2cncc(C3CC3)c2)c(C(N)=O)cc1F)C1CC1 [Example 006-371, 6-(((1R,2S)-2-amino-1-cyclopropylpropyl)amino)-2-((5-cyclopropylpyridin-3-yl)amino)-5-fluoronicotinamide] | < 10 | 65 to 130
C[C@H](N)[C@H](Nc1nc(Nc2cncc(F)c2)c(C(N)=O)cc1F)C1CC1 [Example 006-372, 6-(((1R,2S)-2-amino-1-cyclopropylpropyl)amino)-5-fluoro-2-((5-fluoropyridin-3-yl)amino)nicotinamide] | 10 to 50 | 65 to 130
C[C@H](N)[C@H](Nc1nc(Nc2cncc(-n3cccn3)c2)c(C(N)=O)cc1F)C1CC1 [Example 006-373, 2-((5-(1H-pyrazol-1-yl)pyridin-3-yl)amino)-6-(((1R,2S)-2-amino-1-cyclopropylpropyl)amino)-5-fluoronicotinamide] | < 10 | < 65
Cc1ncc(Nc2nc(N[C@H](CC3CC3)[C@H](C)N)c(F)cc2C(N)=O)cc1-n1nccn1 [Example 006-374, 6-(((2R,3S)-3-amino-1-cyclopropylbutan-2-yl)amino)-5-fluoro-2-((6-methyl-5-(2H-1,2,3-triazol-2-yl)pyridin-3-yl)amino)nicotinamide] | 10 to 50 | 130 to 200
CC[C@H](N)[C@@H](CC)Nc1nc(Nc2cncc(C3CC3)c2)c(C(N)=O)cc1F [Example 006-378, 6-(((3R,4S)-4-aminohexan-3-yl)amino)-2-((5-cyclopropylpyridin-3-yl)amino)-5-fluoronicotinamide] | < 10 | 65 to 130
CC[C@H](N)[C@@H](CC)Nc1nc(Nc2cc(OC)nc(OC)c2)c(C(N)=O)cc1F [Example 006-379, 6-(((3R,4S)-4-aminohexan-3-yl)amino)-2-((2,6-dimethoxypyridin-4-yl)amino)-5-fluoronicotinamide] | < 10 | 130 to 200
CC[C@H](N)[C@@H](CC)Nc1nc(Nc2cnc(C)c(-n3nccn3)c2)c(C(N)=O)cc1F [Example 006-380, 6-(((3R,4S)-4-aminohexan-3-yl)amino)-5-fluoro-2-((6-methyl-5-(2H-1,2,3-triazol-2-yl)pyridin-3-yl)amino)nicotinamide] | 10 to 50 | 65 to 130
CC[C@H](N)[C@@H](CC)Nc1nc(Nc2ccnc(OC)c2)c(C(N)=O)cc1F [Example 006-381, 6-(((3R,4S)-4-aminohexan-3-yl)amino)-5-fluoro-2-((2-methoxypyridin-4-yl)amino)nicotinamide] | 10 to 50 | 65 to 130
COCCn1ncc2cc(Nc3nc(N[C@H](CC(C)C)[C@H](C)N)c(F)cc3C(N)=O)ccc21 [Example 006-385, 6-(((2S,3R)-2-amino-5-methylhexan-3-yl)amino)-5-fluoro-2-((1-(2-methoxyethyl)-1H-indazol-5-yl)amino)nicotinamide] | < 10 | 65 to 130
Cc1ncc(Nc2nc(N[C@H](CC(C)C)[C@H](C)N)c(F)cc2C(N)=O)cc1-n1nccn1 [Example 006-386, 6-(((2S,3R)-2-amino-5-methylhexan-3-yl)amino)-5-fluoro-2-((6-methyl-5-(2H-1,2,3-triazol-2-yl)pyridin-3-yl)amino)nicotinamide] | < 10 | < 65
CCCC[C@@H](Nc1nc(Nc2ccc3c(cnn3C)c2)c(C(N)=O)cc1F)[C@H](C)N [Example 006-387, 6-(((2S,3R)-2-aminoheptane-3-yl)amino)-5-fluoro-2-((1-methyl-1H-indazol-5-yl)amino)nicotinamide] | < 10 | 65 to 130
